Measurements as given in patent US20230346948A1, “Lipid conjugated peptide inhibitors of PICK1” (University of Copenhagen, priority 2020, published 2023).
Where “and” joins values, the source holds several entries; their conditions need not be identical. Identical values can stand only once.

Columns and labels:
PICK1 = biological target: T1, PICK1 (Rattus norvegicus, UniProt Q9EP80); experiment: Fluorescence polarization competition binding to recombinant PICK1
T1 construct: Full length rat PICK1 (pET41) was prepared as described earlier; inferred from pET41 vector and Glutathione-Sepharose capture) (N, cleaved yes); made in house; host or cells: E. coli BL21-DE3-pLysS
Description: Full length rat PICK1 (pET41) was prepared as described earlier (Madsen et al., 2005). In brief, PICK1 was expressed in BL21-DE3-pLysS cells and grown at 37° C., induced at OD600=0.6 with 1 mM Isopropyl β-D-1-thiogalactopyranoside (IPTG) and grown 16 hrs at 20° C. Cultures were harvested and re-suspended in 50 mM trisaminomethane (Tris), 125 mM NaCl, 2 mM Dithiothreitol (DTT, Sigma), 1% Triton X-100 (Sigma), 20 μg/mL DNAse 1 and 1⁄2 a tablet cOmplete protease inhibitor cocktail (Roche) pr. 1 L culture. The re-suspended pellets were frozen at -80° C. for later purification. […] Each column was sealed and 0.075 U/μL, Novagen® was added for cleavage 0/N at 4° C. under gentle rotation. PICK1 was eluted on ice and absorption at 280 nm was measured on TECAN plate reader or on a NanoDrop3000. The protein concentration was determined using lambert beers law (A=ε[…]=32320 (cm*mol/L)^-1. Fluorescence polarization: Fluorescence polarization was carried out in competition mode at a fixed concentration of protein and tracer (5[…], 5 nM or 5[…], 20 nM), against an increasing concentration of indicated unlabelled peptide. The plate was incubated for 2 hours on ice in a black half-area Corning Black non-binding surface 96-well plate. The fluorescence polarization was measured directly on an Omega POLARstar plate reader using excitation filter at 488 nm and long pass emission filter at 535 nm. The data was plotted using GraphPad Prism 8.3, and fitted to the One site competition, to extract Ki,app value.

[1] = Size exclusion chromatography, self-assembly in solution; format: physicochemical; settings: Superdex200 Increase 10/300
Description: Size exclusion chromatography: Size exclusion chromatography was done using an Äkta purifier with a Superdex200 Increase 10/300 column, where 500 μL of […] or […] at the indicated concentration was injected onto the column. Absorbance profile was measured at 280 nm and plotted against elution volume using Graph Pad Prism 8.3.

[2] = test system: spontaneous inflammatory pain (CFA model); experiment: Single exposure place preference (sePP), spontaneous pain; format: in vivo, mice
Description: Inflammatory pain (CFA model): Animals were habituated to the experimental room for a minimum of 60 min before initiation of the experiment. Mechanical pain threshold of both hind paws was determined by von Frey measurements. Injury was induced on the right hind paw, whereas the contralateral left hind paw was used as internal control of the animal. […] In the current experiment filaments in ascending order were applied to the frontocentral plantar surface of the hind paws. […] Each von Frey filament was applied five times with adequate resting periods between each application and number of withdrawals recorded. The withdrawal threshold was determined as the von Frey filament eliciting at least 3 positive trials out of the 5 applications in two consecutive filaments. A positive trial was defined as sudden paw withdrawal, flinching and/or paw licking induced by the filament. The inflammatory pain was induced by injection of 50 μL undiluted Complete Freund's Adjuvant (CFA) ([…], Sigma) unilaterally into the intraplantar surface of the right hind paw. All intraplantar injections were performed with an insulin needle (0.3 mL BD Micro-Fine), while the animal was under isoflurane anesthesia (2%) for maximum 60 seconds. […] Statistical analysis: was performed using GraphPad Prism 6.0. Student's t-test. Significance level set to p<0.05. […] All mice from a cage were tested at the same time, but not all given the same treatment. On exposure days, mice were weighed and injected s.c. with peptide (30 μmol/kg) or vehicle (10 μL/g) and immediately placed into the designated compartment for 60 min. The test group was exposed to peptide in the least preferred compartment, and vehicle (PBS) in the preferred compartment, whereas the control group was injected with vehicle in both compartments. […] Time spent in the different compartments was measured by Ethovision (Noldus, Wageningen, Netherlands). An additional experiment was run on animals without injury, showing no mPD5-dependent preference change

[3] = Solubility by visual inspection in PBS; format: physicochemical
[4] = Chemical stability in PBS for 30 days, HPLC-UV-MS; format: physicochemical
Description: Stability was addressed by […] for four concentration 2, 20, 50 and 200 μM, by leaving […] in PBS at 5 and […] for 30 days followed by HPLC-UV-MS method

T1 sequence (Q9EP80 whole entry): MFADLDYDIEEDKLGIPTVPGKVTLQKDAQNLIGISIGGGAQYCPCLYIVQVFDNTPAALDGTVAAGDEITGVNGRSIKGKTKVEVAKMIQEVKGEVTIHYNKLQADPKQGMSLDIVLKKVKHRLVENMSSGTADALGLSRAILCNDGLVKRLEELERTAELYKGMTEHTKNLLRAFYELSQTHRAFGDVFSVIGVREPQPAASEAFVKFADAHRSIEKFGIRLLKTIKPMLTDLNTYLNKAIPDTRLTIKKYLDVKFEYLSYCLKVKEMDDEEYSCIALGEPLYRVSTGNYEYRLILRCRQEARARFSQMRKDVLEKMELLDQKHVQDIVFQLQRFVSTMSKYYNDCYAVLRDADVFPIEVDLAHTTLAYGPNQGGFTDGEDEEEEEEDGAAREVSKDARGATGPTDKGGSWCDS

## CCCCCCCCCCCCCC(=O)N(CCOCCOCCC(=O)N[C@@H](Cc1c[nH]cn1)C(=O)N[C@@H](Cc1c[nH]c2ccccc12)C(=O)N[C@@H](CC(C)C)C(=O)N[C@@H](CCCCN)C(=O)N[C@H](C(=O)O)C(C)C)CCOCCOCCC(=O)N[C@@H](Cc1c[nH]cn1)C(=O)N[C@@H](Cc1c[nH]c2ccccc12)C(=O)N[C@@H](CC(C)C)C(=O)N[C@@H](CCCCN)C(=O)N[C@H](C(=O)O)C(C)C [myr-NPEG4-(HWLKV)2]
PICK1; FP competition
  affinity increase compared to HWLKV: > 1000 fold
  affinity increase compared to NPEG4-(HWLKV)2: > 50 fold
PICK1; tracer 5FAM-NPEG4-(HWLKV)2 5 nM or 5FAM-HWLKV 20 nM (vs HWLKV), 2 hours on ice, read-out: Ki,app
  Ki: 3 nM
[1]
  SEC elution compared with unconjugated NPEG4-(HWLKV)2: eluted at lower elution volume
[2]; CFA-injured mice, s.c. 30 μmol/kg, single exposure
  place preference, time in drug-paired compartment vs vehicle-treated controls: spent significantly more time in the myr-NPEG4-(HWLKV)2-paired compartment
[2]; mice without injury (Naïve), s.c. 30 μmol/kg, single exposure
  place preference: no change in preference
[2]; mouse, in vivo
  abuse liability: lack of abuse liability
[3]
  solubility: ≥ 130000 µM and 250000 µg/mL
[4]; 30 days @5° C, nominal 2 μM
  Measured Conc. mPD5: 0.5 µM
[4]; 30 days @5° C, nominal 20 μM
  Measured Conc. mPD5: 17 µM
[4]; 30 days @5° C, nominal 50 μM
  Measured Conc. mPD5: 49 µM
[4]; 30 days @5° C, nominal 200 μM
  Measured Conc. mPD5: 194 µM
[4]; 30 days @25° C, nominal 2 μM
  Measured Conc. mPD5: 0.4 µM
[4]; 30 days @25° C, nominal 20 μM
  Measured Conc. mPD5: 17 µM
[4]; 30 days @25° C, nominal 50 μM
  Measured Conc. mPD5: 48 µM
[4]; 30 days @25° C, nominal 200 μM
  Measured Conc. mPD5: 203 µM
[4]; +5° C. and +25° C. in the vehicle compositions
  chemically stable for: at least 30 days
[4]; PBS, 30 days, +5° C. and +25° C.
  degradation: No degradation was observed
[4]; samples with 200 and 50 μM, 30 days in PBS
  purity after storage: > 98%
